Results reported in ChEMBL document CHEMBL4431295 (Medchemcomm, 2016).
Blank lines part the entries; values can stand above or below the molecule they belong to. The source made the active and inactive calls. The calls are words filed in the database; no cut-off is given here.

Assays:
[1] = tested on: MGC-803; experiment: Antiproliferative activity against human MGC803 cells after 72 hrs by MTT assay; assay type: functional, cell-based; conditions: MGC-803, 72 h
[2] = tested on: HepG2; experiment: Antiproliferative activity against human HepG2 cells after 72 hrs by MTT assay; assay type: functional, cell-based; conditions: HepG2, 72 h
[3] = tested on: SK-N-SH; experiment: Antiproliferative activity against human SK-N-SH cells after 72 hrs by MTT assay; assay type: functional, cell-based
[4] = tested on: GES1; experiment: Cytotoxicity against human GES-1 cells assessed as cell growth inhibition after 72 hrs by MTT assay; assay type: cell-based; conditions: GES1, 72 h
[5] = tested on: SK-N-SH; experiment: Induction of apoptosis in human SK-N-SH cells assessed as formation of apoptotic bodies at 5 to 10 uM after 24 hrs by Hoechst 33258 staining based fluorescence microscopic analysis; assay type: functional, cell-based
[6] = tested on: SK-N-SH; experiment: Induction of apoptosis in human SK-N-SH cells assessed as live cells at 10 uM by Annexin V-FITC/propidium iodide staining based flow cytometry (reference value: 90.9%); assay type: functional
[7] = tested on: SK-N-SH; experiment: Induction of apoptosis in human SK-N-SH cells assessed as necrotic cells at 5 uM by Annexin V-FITC/propidium iodide staining based flow cytometry (reference value: 0.3%); assay type: functional
[8] = tested on: SK-N-SH; experiment: Induction of apoptosis in human SK-N-SH cells assessed as early apoptotic cells at 10 uM by Annexin V-FITC/propidium iodide staining based flow cytometry (reference value: 7.1%); assay type: functional
[9] = tested on: SK-N-SH; experiment: Induction of apoptosis in human SK-N-SH cells assessed as necrotic cells at 20 uM by Annexin V-FITC/propidium iodide staining based flow cytometry (reference value: 0.3%); assay type: functional
[10] = tested on: SK-N-SH; experiment: Induction of apoptosis in human SK-N-SH cells assessed as early apoptotic cells at 20 uM by Annexin V-FITC/propidium iodide staining based flow cytometry (reference value: 7.1%); assay type: functional
[11] = tested on: SK-N-SH; experiment: Cell cycle arrest in human SK-N-SH cells assessed as G1/G0 phase accumulation at 5 uM after 24 hrs by FITC/propidium iodide staining based flow cytometry (reference value: 57.72%); assay type: functional
[12] = tested on: SK-N-SH; experiment: Induction of apoptosis in human SK-N-SH cells assessed as late apoptotic cells at 2.5 uM by Annexin V-FITC/propidium iodide staining based flow cytometry (reference value: 1.7%); assay type: functional
[13] = tested on: SK-N-SH; experiment: Cell cycle arrest in human SK-N-SH cells assessed as G2/M phase accumulation at 5 uM after 24 hrs by FITC/propidium iodide staining based flow cytometry (reference value: 6.03%); assay type: functional
[14] = tested on: SK-N-SH; experiment: Cell cycle arrest in human SK-N-SH cells assessed as S phase accumulation at 5 uM after 24 hrs by FITC/propidium iodide staining based flow cytometry (reference value: 37.4%); assay type: functional
[15] = tested on: SK-N-SH; experiment: Cell cycle arrest in human SK-N-SH cells assessed as G1/G0 phase accumulation at 10 uM after 24 hrs by FITC/propidium iodide staining based flow cytometry (reference value: 57.72%); assay type: functional
[16] = tested on: SK-N-SH; experiment: Cell cycle arrest in human SK-N-SH cells assessed as S phase accumulation at 10 uM after 24 hrs by FITC/propidium iodide staining based flow cytometry (reference value: 37.4%); assay type: functional
[17] = tested on: SK-N-SH; experiment: Induction of apoptosis in human SK-N-SH cells assessed as early apoptotic cells at 1.25 uM by Annexin V-FITC/propidium iodide staining based flow cytometry (reference value: 7.1%); assay type: functional
[18] = tested on: SK-N-SH; experiment: Induction of apoptosis in human SK-N-SH cells assessed as necrotic cells at 2.5 uM by Annexin V-FITC/propidium iodide staining based flow cytometry (reference value: 0.3%); assay type: functional
[19] = tested on: SK-N-SH; experiment: Induction of apoptosis in human SK-N-SH cells assessed as chromatin shrinkage at 5 to 10 uM after 24 hrs by Hoechst 33258 staining based fluorescence microscopic analysis; assay type: functional, cell-based
[20] = tested on: SK-N-SH; experiment: Cell cycle arrest in human SK-N-SH cells assessed as G2/M phase accumulation at 2.5 uM after 24 hrs by FITC/propidium iodide staining based flow cytometry (reference value: 6.03%); assay type: functional
[21] = tested on: SK-N-SH; experiment: Induction of apoptosis in human SK-N-SH cells assessed as late apoptotic cells at 5 uM by Annexin V-FITC/propidium iodide staining based flow cytometry (reference value: 1.7%); assay type: functional
[22] = tested on: SK-N-SH; experiment: Induction of apoptosis in human SK-N-SH cells assessed as cell rounding at 5 to 10 uM after 24 hrs by Hoechst 33258 staining based fluorescence microscopic analysis; assay type: functional
[23] = tested on: SK-N-SH; experiment: Cell cycle arrest in human SK-N-SH cells assessed as G2/M phase accumulation at 10 uM after 24 hrs by FITC/propidium iodide staining based flow cytometry (reference value: 6.03%); assay type: functional
[24] = tested on: SK-N-SH; experiment: Induction of apoptosis in human SK-N-SH cells assessed as live cells at 20 uM by Annexin V-FITC/propidium iodide staining based flow cytometry (reference value: 90.9%); assay type: functional
[25] = tested on: SK-N-SH; experiment: Induction of apoptosis in human SK-N-SH cells assessed as increase in caspase-3 expression at 5 to 10 uM after 24 hrs by Western blot analysis; assay type: functional, cell-based
[26] = tested on: SK-N-SH; experiment: Induction of apoptosis in human SK-N-SH cells assessed as increase in p53 expression at 5 to 10 uM after 24 hrs by Western blot analysis; assay type: functional, cell-based
[27] = tested on: SK-N-SH; experiment: Cell cycle arrest in human SK-N-SH cells assessed as S phase accumulation at 2.5 uM after 24 hrs by FITC/propidium iodide staining based flow cytometry (reference value: 37.4%); assay type: functional
[28] = tested on: SK-N-SH; experiment: Induction of apoptosis in human SK-N-SH cells assessed as late apoptotic cells at 20 uM by Annexin V-FITC/propidium iodide staining based flow cytometry (reference value: 1.7%); assay type: functional
[29] = tested on: SK-N-SH; experiment: Induction of apoptosis in human SK-N-SH cells assessed as necrotic cells at 10 uM by Annexin V-FITC/propidium iodide staining based flow cytometry (reference value: 0.3%); assay type: functional
[30] = tested on: SK-N-SH; experiment: Induction of apoptosis in human SK-N-SH cells assessed as necrotic cells at 1.25 uM by Annexin V-FITC/propidium iodide staining based flow cytometry (reference value: 0.3%); assay type: functional
[31] = tested on: SK-N-SH; experiment: Induction of apoptosis in human SK-N-SH cells assessed as late apoptotic cells at 10 uM by Annexin V-FITC/propidium iodide staining based flow cytometry (reference value: 1.7%); assay type: functional
[32] = tested on: SK-N-SH; experiment: Induction of apoptosis in human SK-N-SH cells assessed as live cells at 2.5 uM by Annexin V-FITC/propidium iodide staining based flow cytometry (reference value: 90.9%); assay type: functional
[33] = tested on: SK-N-SH; experiment: Induction of apoptosis in human SK-N-SH cells assessed as live cells at 5 uM by Annexin V-FITC/propidium iodide staining based flow cytometry (reference value: 90.9%); assay type: functional
[34] = tested on: SK-N-SH; experiment: Induction of apoptosis in human SK-N-SH cells assessed as live cells at 1.25 uM by Annexin V-FITC/propidium iodide staining based flow cytometry (reference value: 90.9%); assay type: functional
[35] = tested on: SK-N-SH; experiment: Cell cycle arrest in human SK-N-SH cells assessed as G1/G0 phase accumulation after 24 hrs by FITC/propidium iodide staining based flow cytometry; assay type: functional
[36] = tested on: SK-N-SH; experiment: Induction of apoptosis in human SK-N-SH cells assessed as early apoptotic cells at 5 uM by Annexin V-FITC/propidium iodide staining based flow cytometry (reference value: 7.1%); assay type: functional
[37] = tested on: SK-N-SH; experiment: Induction of apoptosis in human SK-N-SH cells assessed as early apoptotic cells at 2.5 uM by Annexin V-FITC/propidium iodide staining based flow cytometry (reference value: 7.1%); assay type: functional
[38] = tested on: SK-N-SH; experiment: Induction of apoptosis in human SK-N-SH cells assessed as decrease in pro-caspase-3 expression at 5 to 10 uM after 24 hrs by Western blot analysis; assay type: functional, cell-based
[39] = tested on: SK-N-SH; experiment: Induction of apoptosis in human SK-N-SH cells assessed as late apoptotic cells at 1.25 uM by Annexin V-FITC/propidium iodide staining based flow cytometry (reference value: 1.7%); assay type: functional
[40] = tested on: SK-N-SH; experiment: Cell cycle arrest in human SK-N-SH cells assessed as G1/G0 phase accumulation at 2.5 uM after 24 hrs by FITC/propidium iodide staining based flow cytometry (reference value: 57.72%); assay type: functional

- IC50 [1]: > 64 µM
- IC50 [2]: 24 µM
- IC50 [3]: 19.6 µM
Compound: O=C(/C=C/c1cccc(Cl)c1)c1ccc(OCc2cn(Cc3ccccc3)nn2)cc1

- IC50 [1]: 37.3 µM
- IC50 [2]: 42.5 µM
- IC50 [3]: 39.2 µM
Compound: O=C(/C=C/c1ccco1)c1ccc(NCc2cn(Cc3ccccc3)nn2)cc1

- IC50 [1]: 26.1 µM
- IC50 [2]: 11.4 µM
- IC50 [3]: 7.43 µM
Compound: O=C(/C=C/c1ccncc1)c1ccc(OCc2cn(Cc3ccccc3)nn2)cc1

- IC50 [1]: 10.2 µM
- IC50 [2]: 5.22 µM
- IC50 [3]: 6.37 µM
Compound: O=C(/C=C/c1cccnc1)c1ccc(OCc2cn(Cc3ccccc3)nn2)cc1

- IC50 [1]: 61.2 µM
- IC50 [2]: 55.6 µM
- IC50 [3]: 58.2 µM
Compound: Nc1ccc(C(=O)/C=C/c2ccc(Cl)cc2)cc1

- IC50 [1]: 7.19 µM
- IC50 [2]: 9.24 µM
- IC50 [3]: 7.26 µM
Compound: O=C(/C=C/c1cccnc1)c1ccc(NCc2cn(Cc3ccc(C(F)(F)F)cc3)nn2)cc1

- IC50 [1]: > 64 µM
- IC50 [2]: > 64 µM
- IC50 [3]: > 64 µM
Compound: Nc1ccc(C(=O)/C=C/c2cccs2)cc1

- IC50 [1]: 3.15 µM
- IC50 [2]: 6.92 µM
- IC50 [3]: 7.29 µM
Compound: O=C(/C=C/c1cccnc1)c1ccc(NCc2cn(Cc3ccccc3C(F)(F)F)nn2)cc1
- IC50 [4]: 54.7 µM

- IC50 [1]: 23.5 µM
- IC50 [2]: > 64 µM
- IC50 [3]: 27.3 µM
Compound: O=C(/C=C/c1cc(F)cc(F)c1)c1ccc(NCc2cn(Cc3ccccc3)nn2)cc1

- IC50 [1]: > 64 µM
- IC50 [2]: > 64 µM
- IC50 [3]: 48.9 µM
Compound: Nc1ccc(C(=O)/C=C/c2ccco2)cc1

- IC50 [1]: 37.2 µM
- IC50 [2]: 9.35 µM
- IC50 [3]: 14.5 µM
Compound: COc1ccc(/C=C/C(=O)c2ccc(OCc3cn(Cc4ccccc4)nn3)cc2)c(OC)c1OC

- IC50 [1]: 7.03 µM
- IC50 [2]: 9.32 µM
- IC50 [3]: 4.36 µM
Compound: O=C(/C=C/c1cccnc1)c1ccc(NCc2cn(Cc3ccc(Cl)cc3)nn2)cc1

- IC50 [1]: 38.6 µM
- IC50 [2]: 34.7 µM
- IC50 [3]: 21.2 µM
Compound: COc1cccc(Cn2cc(CNc3ccc(C(=O)/C=C/c4ccc(Cl)cc4)cc3)nn2)c1

- IC50 [1]: 2.73 µM
- IC50 [2]: 2.21 µM
- IC50 [3]: 1.53 µM
Compound: COc1cccc(Cn2cc(CNc3ccc(C(=O)/C=C/c4cccnc4)cc3)nn2)c1
- Activity [5]: Active
- Activity [6]: 48.8%
- Activity [7]: 0.8%
- Activity [8]: 31.9%
- Activity [9]: 1.6%
- Activity [10]: 39.7%
- Activity [11]: 71.27%
- Activity [12]: 2.1%
- Activity [13]: 14.2%
- Activity [14]: 15.65%
- Activity [15]: 81.8%
- Activity [16]: 10.34%
- Activity [17]: 5.7%
- IC50 [4]: 31.1 µM
- Activity [18]: 0.7%
- Activity [19]: Active
- Activity [20]: 18.71%
- Activity [21]: 2.5%
- Activity [22]: Active
- Activity [23]: 7.17%
- Activity [24]: 1%
- Activity [25]: Active
- Activity [26]: Active
- Activity [27]: 19.11%
- Activity [28]: 57.7%
- Activity [29]: 0.5%
- Activity [30]: 0.3%
- Activity [31]: 18.8%
- Activity [32]: 91.4%
- Activity [33]: 87.1%
- Activity [34]: 92.9%
- Activity [35]: Dose-dependent effect
- Activity [36]: 9.6%
- Activity [37]: 5.8%
- Activity [38]: Active
- Activity [39]: 1.2%
- Activity [40]: 67.06%
